Patent publication US6475993B2 (Universite Laval, priority 1998, dated 2002)

Key:
mdx mice = assay: Toxicity signs in mdx mice treated with gentamicin; format: in vivo
Text: Further, any mean by which gentamicin or gentamicin-like or derived molecules can be driven more directly to the site of action is within the scope of this invention.

CFTR protein = details: gentamicin 200 mg/mL (so in the source), incubation 18 to 24 hours; Howard et al. 1996; cited from earlier work
dystrophin = assay: Dystrophin immunohistochemistry in skeletal muscle and heart of mdx mice treated with gentamicin; format: in vivo; details: for Dystrophin staining intensity: 7 days
Experimental: All mice were then sacrificed, their skeletal muscle and their heart were frozen and cryostat sectioned. The presence of dystrophin in these sections was investigated by immunohistochemistry. […] In the untreated mdx muscles, dystrophin immunostaining was observed only in a few revertant fibers (Hoffman et al. 1990). […] The dystrophin staining was less intense in the muscles of mice treated with 1 mg/kg. […] The duration of treatment may vary.

## gentamicin
Mdx mice
  Toxicity signs: No toxicity signs appeared
CFTR protein
  Suppression of premature stop mutation in CFTR gene (full-length CFTR protein): permitted to suppress the premature stop mutation
dystrophin; Sub-cutaneous or intra-muscular daily treatments of 7 to 14 days or longer
  Success of daily treatments of other route or duration: equivalently successful
dystrophin; mdx mice, I.M. 5 mg/day gentamicin, some muscles
  Dystrophin staining intensity: as intense as that observed in the normal mouse muscles
dystrophin; mdx mice, I.M. gentamicin 1 mg/day or 5 mg/day during 7 days, skeletal muscle and heart cryostat sections
  Presence of dystrophin by immunohistochemistry: detected by immunohistochemistry on all muscle fibers and all heart muscle cells
dystrophin; mdx mice, I.M. gentamicin, printed 1 mg/kg
  Dystrophin staining intensity: less intense
dystrophin; mdx mice, dose of 8 to 40 mg per Kg of body weight per day
  Suppression of premature stop codon in vivo: successfully suppressed the premature stop codon
